Data as given in patent publication US20150283098A1, “PRENYLATED CHALCONE FORMULATION FOR THE TREATMENT OF BEES” (BIOACTIVE-TECH SP. Z O.O., priority 2012, published 2015).

Experiments:
[1] = test system: Nosema spp. (apis and cerenae); test: Counting of Nosema cells under a microscope in blended dead bees; type: in vivo
Description: (§1) (apis and cerenae). It was found on the basis of studies (initial results) that the amount of spores observed under a microscope after the use of Xn decreased by 60% on average in relation to control. Observation under a microscope of blended dead bees was related to counting of Nosema cells in the suspension of distilled water. […] The formulation was also investigated in several bee colonies in apiary infected with Nosemosis.

Nosema spp. = test: Spraying of bee colonies in apiary infected with Nosemosis; type: in vivo; details: several days after spraying with formulation containing xanthohumol
Description: as §1

bees [2] = test: Example 1: viability of bees in experimental queen cages with high concentration of imidaclopride; type: in vivo; details: 10 mg/l xanthohumol in syrup for three days, then imidaclopride (Kohinor 200 SL) 375 μl/l; controls died in 100%
Protocol: The experiment was carried out in Lublin, Poland in an apiary containing 250 bee colonies.
The influence of xanthohumol concentration in sugar syrup on the viability of bees was studied on samples of 100 bees placed in a special cage for studies, (FIG. 1). The bees were taking a protective formulation for three days in the form of xanthohumol dissolved in standard sugar syrup in three concentrations: 5, 10 and 20 mg of xanthohumol/1, respectively. Each concentration was studied in three independent small hives. After three days of taking the protective formulation, the bees received imidaclopride (in Kohinor 200 SL) in a concentration of 375 μl/l in a […] (similar doses are used for controlling of insects in vegetable cultivations). As a control group, three small hives of 100 bees each were used, which were not fed with xanthohumol containing preparation. All xanthohumol concentrations and the control group were studied in thriplicate. Xanthohumol obtained by chromatographic method from hop post-extraction waste was used. The purity of the preparation was ˜99% (FIG. 3).

bees [3] = test: Example 2: viability and behaviour of bees in apiary hives with low concentration of imidaclopride spray; type: in vivo
Protocol: Similar studies as described in example 1 were carried out in three bee hives containing ˜40,000 bees. Frames with bees (FIG. 4) were sprayed with imidaclopride dissolved in water at a concentration of 125 μl/l (microlitres per litre). It is a half of imidaclopride concentration in Kohinor 200 SL used in cultivation of vegetables in soil. The purpose of the study was to investigate low doses of imidaclopride to which mainly are exposed the bees collecting nectar during agrotechnological procedures.
The bees were studied in two groups. […] The studied group were bees which were given protective xanthohumol preparation in […] (milligram per litre) syrup for one week and then treated with imidaclopride spray at the above mentioned concentration (FIGS. 6A, 6B and 6C).

bees [4] = test: Example 3: viability of bee colonies poisoned with thiamethoxam (Actara) after xanthohumol spray; type: in vivo
Protocol: The experiment was carried out in Loma-Zawady Przedmieście, Poland in an apiary consisting of 25 colonies based in hives of Dadant type (frame 435×300 mm). The hives had wire-net, detachable bottom in the form of a diagnostic tray. The nest body of the hives consisted of 10 frames.
Bee colonies in the form of separated colonies were purchased from local producer. Each separated colony consisted of 3 frames of brood and frames with supply of bee bread and honey. All frames were settled in “black” by bees.
The experiments were carried out on 25 swarms of bees divided into VI groups. Groups I to V, consisted of 4 hives, each.
In groups I-V, xanthohumol at the concentration of 40 mg/l was used as a protective formulation. Actara at the concentration of 0.4 g/l was used for poisoning of insects (the concentration used in spraying of beetle).
Group IV—bee colonies treated with the protective preparation in the form of spray. Poisoning with Actara by alimentary route. 20 mg of xanthohumol were dissolved in 1 ml of ethyl alcohol and subsequently added to 0.5 l of sugar syrup in water in a ration 1:1 and four hives were sprayed with spraying machine so that one bee colony received a dose of 5 mg of xanthohumol. Poisoning with Actara given with 1:1 syrup (1 kg of sugar+1 l of water).
Group V—bee colonies treated with the protective preparation in the form of spray. Poisoning with Actara by contact route. 20 mg of xanthohumol were dissolved in 1 ml of ethyl alcohol and subsequently added to 0.5 l of sugar syrup in water in a ratio 1:1 and four hives were sprayed with the spraying machine so that one bee colony received a dose of about 5 mg of xanthohumol. Poisoning was carried out in the form of small-molecule spraying which was used for each frame with bees.
In this group, a formulation of different xanthohumol concentrations was used, and Actara (thiametoxam 25%) for poisoning of bees, at a dose of 0.2 g/l (concentration used by fruit farmers) was used. The control group were bees subjected only to spraying procedure with Actara.
Group VI a)—bees were protected with the formulation of xanthohumol concentration of 0.08 mg/l.
0.01 mg of xanthohumol was dissolved in 1 ml of ethyl alcohol and subsequently added to 0.125 l of sugar syrup in water in a ratio 1:1 and 1 hive was sprayed so that one a bee colony received a dose of about 0.01 mg of xanthohumol. After 24 hours, the bee colony was poisoned by a contact route. The poisoning was carried out in the form of small-molecule spraying which was used for each frame with bees.
Group VI b)—the bees were protected with the preparation of xanthohumol in concentration 1.6 mg/l.
0.2 mg of xanthohumol was dissolved in 1 ml of ethyl alcohol and subsequently added to 0.125 l of sugar syrup in water in a ratio 1:1 and 1 hive was sprayed so that one bee colony received a dose of about 0.2 mg of xanthohumol. After 24 hours, the bee colony was poisoned by the contact route. Poisoning was carried out in the form of small-molecule spraying which was applied on each frame with the bees.
Group VI c)—the bees were protected with a formulation of xanthohumol in concentration 16 mg/l.
2 mg of xanthohumol dissolved in 1 ml of ethyl alcohol which was added to 0.125 l of sugar syrup in water in a ration of 1:1 in duplicate and it was sprayed on 2 hives so that one bee colony received a dose of about 2 mg of xanthohumol. After 24 hours, the bee colonies were poisoned by the contact route. The poisoning was carried out if the form of a small-molecule spray which was applied on each frame with bees.
Group VI d)—the bees were protected with a preparation of xanthohumol concentration 8 g/1.
1 g of xanthohumol dissolved in 10 ml of ethyl alcohol which was then added to 0.125 l of sugar syrup in water in a ratio 1:1 and it was sprayed on 1 hive so that one bee colony received a dose of about 1000 mg of xanthohumol (1 hive). After 24 hours bee colony was poisoned by a contact route. […]

bees [5] = test: Example 3: effect of xanthohumol formulation itself on bee colonies (vigour, hygienic instinct, toxicity); type: in vivo
Protocol: Group III—bee colonies treated with the protective formulation in the form of spray without poisoning with Actara. 20 mg of xanthohumol were dissolved in 1 ml of ethyl alcohol and subsequently added to 0.5 l of sugar syrup in water in a ratio of 1:1, and four hives were sprayed with use of a spraying machine so that one bee colony received a dose of about 5 mg of xanthohumol. Actara was not used in this experiment.
1 g of xanthohumol dissolved in 10 ml of ethyl alcohol which was then added to 0.125 l of sugar syrup in water in a ratio 1:1 and it was sprayed on 1 hive so that one bee colony received a dose of about 1000 mg of xanthohumol (1 hive). After 24 hours bee colony was poisoned by a contact route. Poisoning was carried out in the form of small-molecule spray which was applied on each frame with bees.

[6] = test system: virus of sacbrood disease and mycosis and Nosemosis; test: Other studies in Poland: colonies with sacbrood disease, mycosis and Nosemosis; type: in vivo, bees; details: 5 mg per one bee colony
Protocol: The studies prowed that the formulation containing xanthohumol (at a dose of 5 mg per one bee colony) may be used also for the treatment of the virus of sacbrood disease and mycosis and Nosemosis. […] The increased hygienic instinct was shown by studies carried out on bee colonies by a dozen of beekeepers in Poland.

bees [7] = test: Stocking of a hive contaminated with a pesticide with a protected colony; type: in vivo; details: xanthohumol in syrup 2 g/l by spray; unprotected colony collapsed
Description: Furthermore, it was found on the basis of the studies with the use of the formulation according to the invention, that there is a possibility of rehabilitating the protected bees in these regions which were contaminated by pesticides, where it has not been possible so far. In the hive where a control bee colony unprotected with the preparation was stocked with new unprotected colony, it collapsed within a short time. A hive contaminated with a pesticide is poisonous for bees even after several weeks.

[8] = test system: focal ischaemia caused by MCAO in rats; details: cited from earlier work
[9] = cited from earlier work

Structure (SMILES): COc1cc(O)c(CC=C(C)C)c(O)c1C(=O)/C=C/c1ccc(O)cc1 [xanthohumol]
- decrease of amount of Nosema spores observed under a microscope in relation to control ([1]; after the use of Xn, on average, initial results): 60%
- number of Nosema pieces in suspension of blended dead bees ([1]; after using the formulation for 1 week, bees without Xn 30±3): 8±2 pieces
- typical symptoms of Nosema spp. infection (soiling of frames and front wall of the hive with feces) (Nosema spp.): disappeared
- viability of bees (bees [2]): ~45%
- behaviour of bees (bees [3]; two weeks after the administration of imidaclopride): did not show any differences in behaviour compared to the healthy hives
- bees died (bees [3]; xanthohumol 10 mg/ml (milligram per litre) syrup for one week, then imidaclopride spray 125 μl/l): ~10%
- time from spraying until bees started to fly to the pasture and bring pollen (bees [3]; xanthohumol syrup one week, imidaclopride spray 125 μl/l): Three
- losses of bees (bees [4]; Group IV: xanthohumol 40 mg/l spray, Actara 0.4 g/l alimentary route after 24 hours): 35%
- memory / flights for pollen of surviving colonies (bees [4]; Group IV: xanthohumol 40 mg/l, Actara 0.4 g/l alimentary route): did not lose memory
- losses of bees (bees [4]; Group V: xanthohumol 40 mg/l spray, Actara 0.4 g/l contact route after 24 hours): 10%
- memory / flights for pollen of surviving colonies (bees [4]; Group V: xanthohumol 40 mg/l, Actara 0.4 g/l contact route): did not lose memory and carried pollen
- behaviour of the colony (bees [4]; Group VI a survivors, a week after post-poisoning spraying with xanthohumol 1.6 mg/l, dose of 2 mg): returned to normal
- time until bees restarted flights around the hive (bees [4]; Group VI a survivors, sprayed after poisoning with xanthohumol 1.6 mg/l, dose of 2 mg): 48 h
- part of bee colony that did not survive (bees [4]; Group VI a: xanthohumol 0.08 mg/l (0.01 mg per colony), Actara 0.2 g/l contact after 24 hours): 60%
- restart of flights for pollen by surviving bees (bees [4]; Group VI a: xanthohumol 0.08 mg/l, Actara 0.2 g/l): did not restart flights for pollen either after 24 hours or 48 hours
- part of bee colony that did not survive (bees [4]; Group VI b: xanthohumol 1.6 mg/l (0.2 mf per colony), Actara 0.2 g/l contact): about 40%
- time until surviving bees restarted flights for pollen (bees [4]; Group VI b: xanthohumol 1.6 mg/l, Actara 0.2 g/l): 48 h
- symptoms of poisoning (bees [4]; Group VI c: seven days from poisoning): do not show any symptoms of poisoning
- survival of bees (bees [4]; Group VI c: xanthohumol 16 mg/l (2 mg per colony), Actara 0.2 g/l contact): almost all bees survived
- time until surviving bees restarted flights for pollen (bees [4]; Group VI c: xanthohumol 16 mg/l, Actara 0.2 g/l): 24 h
- symptoms of poisoning (bees [4]; Group VI d: after seven days): did not show any symptoms of poisoning
- losses of bees (bees [4]; Group VI d: xanthohumol 8 g/l (1 g per colony), Actara 0.2 g/l): 10%
- bees survived (bees [4]; Group VI d: xanthohumol 8 g/l (1 g per colony), Actara 0.2 g/l contact after 24 hours): 90%
- behaviour and hygienic instinct of bee colony (bees [5]; Group III: spray, xanthohumol 40 g/l, about 5 mg per colony, no Actara): improved the behaviour of bee colony and significantly influenced hygienic instinct of a bee
- Varroa destructor mites on the diagnostic tray (bees [5]; Group III: spray, xanthohumol 40 g/l, no Actara, not observed in control hives): Dead mites Varroa destructor were also observed
- symptoms increasing the vigour (bees [5]; Group VI a: 0.01 mg xanthohumol per colony): no symptoms increasing the vigour
- toxic effects of xanthohumol preparation on bees (bees [5]; Group VI d: 1 gram per hive (8 g/l), inspected 24 hours after use, before poisoning): did not cause any toxic effects
- movement of bees at the beehive entrance (bees [5]; all studied concentrations of xanthohumol, compared to control hives): increased movement of bees was observed at the beehive entrance
- brooding of bee mothers compared with the control (bees [5]; first half of August, hives protected with the preparation): significant increase
- effect in colonies with mycosis and Nosemosis [6]: fast purification of the nest from dead insects occurred
- effect in colonies with sacbrood disease [6]: the colony started to work
- fate of protected colony put into pesticide-contaminated hive (bees [7]): still lived and did not show symptoms of poisoning
- area of brain ischaemic necrosis [8]: significantly decreased
- water solubility [9]: poor
